Measurements: patent publication US11883423B2, “Nucleobase analogue derivatives and their applications” (BOARD OF REGENTS, THE UNIVERSITY OF TEXAS SYSTEM, priority 2014, dated 2024)

What was measured:
BxPC-3 cells = experiment: Anti-proliferative activity, MTT assay, BxPC-3 cells; assay type: cell-based, human; details: Bx-PC3 cells
Method: (§1) The anti-proliferative activity of Gem-DHA was evaluated in Panc-02, TC-1, Panc-1-Luc, and BxPC-3 cell lines. For Panc-02 and TC-1 cells, cells (1,500/well for Panc-02 and 3,000/well for TC-1) were seeded in 96-well plates and incubated at 37° C. and 5% CO2 overnight. The cells were then treated with various concentrations of Gem-DHA or other compounds for 24 h. For BxPC-3 and Panc-1-Luc cells, 3,000 and 1,000 cells/well were used, respectively, and cells were co-incubated with the Gem-DHA for 72 h. Cell viability was determined using an MTT assay as previously described (Naguib YW et al. Mol Pharm. 2014, 11(4), 1239-1249). Gemcitabine HCl was dissolved in cell culture medium, whereas Gem-DHA and DHA were dissolved in dimethylsulfoxide (DMSO). The values of IC50 were calculated using GraphPad Prism (GraphPad software, Inc., La Jolla, CA).

[1] = Chemical stability in Tween 80/ethanol/water formulation (HPLC); assay type: physicochemical; details: for First order degradation rate constant k: aqueous formulation, mean ± SD (n=3)
Method: Gem-DHA was solubilized into an aqueous formulation that contains Tween 80 (10%, w/v) and ethanol (5.5%, v/v) (referred to as the Tween 80/ethanol/water formulation) to evaluate its in vivo activity. The stability of Gem-DHA in this formulation was evaluated in crimp-sealed amber glass vials under nitrogen atmosphere. Briefly, 150 μl of the Gem-DHA aqueous solution at a concentration of about 7 mg/ml were added to the amber glass vials under nitrogen atmosphere, and the vials were crimp-sealed with aluminum seals over rubber lids. At predetermined time intervals, 10 μl of the solution were diluted with 90 μl of methanol and mixed, and the concentration was measured using HPLC. Stability tests were carried out at room temperature (˜22° C.) or 4° C. in triplicates. Vitamin E was added in the formulation to a final concentration of 0.01% or 0.04% (v/v) to evaluate the effect of vitamin E on the chemical stability of Gem-DHA.
The degradation was slower at 4° C. […] Indeed, it was reported that a higher concentration of vitamin E may not necessarily have a higher anti-oxidative activity, as higher concentrations may sometimes lead to opposite effects (Owen S C. In: Rowe R C, Sheskey P J, Owen S C Eds, Handbook of Pharmaceutical Excipients. London, Pharmaceutical Press, 2006; 32-35).
To study the effect of temperature on the chemical stability of Gem-DHA, the Gem-DHA formulation in crimp-sealed vials under nitrogen was stored in room temperature, 37° C., or 60° C., protected from light. Sampling and analyses were carried out at pre-determined time points as described above. The first order degradation reaction equation was used to calculate the values of the reaction rate (k) at different temperatures (Table 2). An Arrhenius plot was constructed by plotting the In k values vs. 1/T to calculate the activation energy (Ea, in kcal/mol). The activation energy of the chemical reaction was calculated to be 12.86 kcal/mol (FIG. 2C).

Panc-1-Luc tumors = experiment: Antitumor activity against orthotopic Panc-1-Luc tumors in nude mice, with tumor histology; assay type: in vivo
Description: Nude mice with intrapancreatically injected Panc-1-Luc human pancreatic cancer cells were used as a mouse model of pancreatic cancer. The National Institutes of Health guidelines for animal use and care were followed Animal protocols were approved by the Institutional Animal Care and Use Committee at the University of Texas at Austin. Panc-1-Luc cells (Muniz VP et al. Mol Cancer Res. 2011, 9(7), 867-877) were implanted orthotopically by injecting 1×10^6 cells into (the tail of) the pancreas.
Panc-1-Luc cell suspension was prepared at a concentration of 2×10^7 per ml in a 1:1 (v/v) mixture of DMEM and Matrigel. Tumor cells were then injected into the pancreas of male athymic nude mice (6-8 weeks, Charles River Laboratories, Wilmington, Mass.) following a surgical procedure (Raut CP et al. Cancer Biol Ther. 2004, 3(12), 1217-1224; Bruns CJ et al. Neoplasia. 1999, 1(1), 50-62). Briefly, after mice were anesthetized using isoflurane, the skin and peritoneum were cut open about 1 cm in length using sterile surgical scalpels. The pancreas was pulled out, and 50 μL of the cell suspension were injected slowly until a small bleb was formed. After the needle was withdrawn, a small cotton plug was applied for 10 s. The pancreas was returned back, the peritoneum was sutured with Monocryl™ bioresorbable sutures (Ethicon, Somerville, N.J.), and the skin was then closed using surgical clips. Mice were s.c. injected with buprenorphine (0.1 mg/kg) as a pain killer and were left to heal for one week. Tumor progress was monitored using an IVIS™ Spectrum imaging system (Caliper, Hopkinton, MA). For IVIS imaging, each mouse was i.p. injected with a luciferin solution (15 mg/ml) at a dose of 0.15 mg/g body weight in sterile DPBS, anesthetized with isoflurane, and imaged 10 min after luciferin injection. Four weeks after tumor implantation, mice with tumors were randomized into 3 groups (n=5-7) and intraperitoneally injected (i.p) with Gem-DHA (50 mg/kg, ˜0.087 mmole/kg), gemcitabine HCl (26.1 mg/kg, ˜0.087 mmole/kg), or left untreated. Gem-DHA was in a Tween 80/ethanol/water solution with 5% (w/v) of mannitol, and gemcitabine HCl was in sterile mannitol solution (5%, w/v). Treatments were repeated twice a week for a total 7 doses. Thirty days after the first treatment, mice were sacrificed and tumors were dissected from the pancreas, weighed, and fixed in formalin. The doses were based on the average weight of mice in the same group on the day of injection, and were adjusted only if the weight of an individual mouse was above or below 10% of the average weight.
Tumor tissues were sectioned and stained in the Histology and Tissue Analysis Core at Dell Pediatric Research Institute at the University of Texas at Austin or in the Department of
Molecular Carcinogenesis at the University of Texas M.D. Anderson Cancer Center at Science Park (Smithville, Texas) with hematoxylin & eosin (H&E), antibodies against cleaved lamin-A (apoptosis marker), CD-31 (angiogenesis marker), or Ki-67 (proliferation marker). Slides were then scanned, and images were taken using the ScanScope XT (Aperio Technologies, Vista, CA). […] In addition, several areas of necrosis can also be seen in the centers of the tumors. […] Several pyknotic cells with condensed chromatin can also be seen in tumors in mice that were treated with Gem-DHA.

Panc-02 cells = experiment: Anti-proliferative activity, MTT assay, Panc-02 cells; assay type: cell-based; details: Mus musculus, Panc02, 24 h
Method: as §1

SMILES: CC/C=C\C/C=C\C/C=C\C/C=C\C/C=C\C/C=C\CCC(=O)Nc1ccn(C2OC(CO)C(O)C2(F)F)c(=O)n1 (centres unmarked) [Gem-DHA, 4-(N)-Docosahexaenoyl Difluorodeoxycytidine]
- Fold by which IC50 is smaller than that of gemcitabine HCl (BxPC-3 cells): 1.8×10^5 fold
- Degradation in Tween 80/ethanol/water formulation ([1]; 4° C., compared with room temperature): slower
- Activation energy (Ea) of the degradation ([1]; Arrhenius plot of ln k vs 1/T): 12.86 kcal/mol
- First order degradation rate constant k ([1]; 37° C.): 0.042 ± 0.005 h⁻¹
- First order degradation rate constant k ([1]; 60° C.): 0.106 ± 0.009 h⁻¹
- First order degradation rate constant k ([1]; room temperature (~22° C.)): 0.018 ± 0.001 h⁻¹
- Degradation in Tween 80/ethanol/water formulation ([1]; room temperature (~22° C.)): found to degrade at room temperature
- Degradation in Tween 80/ethanol/water formulation ([1]; with vitamin E 0.01% or 0.04%, 0.01% more effective than 0.04%): slower in the presence of vitamin E
- H&E histology of tumor tissue (Panc-1-Luc tumors; compared with tumors of untreated mice): less densely packed cancer cells
- Inhibition of growth of Panc-1-Luc tumors (Panc-1-Luc tumors; i.p., ~0.087 mmole/kg (Gem-DHA 50 mg/kg, gemcitabine HCl 26.1 mg/kg), twice a week, 7 doses): more effective than the molar equivalent dose of gemcitabine HCl
- Percent of Ki-67 positive cells in tumors (Panc-1-Luc tumors; versus mice treated with gemcitabine HCl): significantly lower percent of Ki-67 positive cells
- Cleaved lamin-A positive staining in tumors (Panc-1-Luc tumors; versus untreated mice): significantly higher percent of positive staining
- Micro-vessel density (MVD) in tumors, anti-CD-31 staining (Panc-1-Luc tumors; versus untreated mice): significantly lower than in mice that were not treated
- IC50 (Panc-02 cells): 34 pM
